From ChEMBL document CHEMBL1212812, “Multi-target spectral moment QSAR versus ANN for antiparasitic drugs against different parasite species” (Bioorg Med Chem, 2010)
pIC50: −log10 of the molar value. Blank lines part the entries; values can stand above or below the molecule they belong to.

Assays:
[1] = tested on: Cryptosporidium parvum; assay: Antimicrobial activity against Cryptosporidium parvum; format: functional, organism-based
[2] = tested on: Leishmania mexicana; assay: Antimicrobial activity against Leishmania mexicana; format: functional, organism-based
[3] = tested on: Leishmania; assay: Antimicrobial activity against Leishmania; format: functional
[4] = tested on: Trypanosoma brucei; assay: Antimicrobial activity against Trypanosoma brucei; format: functional, organism-based
[5] = tested on: Leishmania amazonensis; assay: Antimicrobial activity against Leishmania amazonensis; format: functional, organism-based
[6] = tested on: Trypanosoma cruzi; assay: Antimicrobial activity against Trypanosoma cruzi; format: functional, organism-based; details: Trypanosoma cruzi
[7] = tested on: Leishmania major; assay: Antimicrobial activity against Leishmania major; format: functional, organism-based
[8] = tested on: Plasmodium falciparum; assay: Antimicrobial activity against Plasmodium falciparum; format: functional, organism-based
[9] = tested on: Toxoplasma gondii; assay: Antimicrobial activity against Toxoplasma gondii; format: functional, organism-based; details: Toxoplasma gondii
[10] = tested on: Leishmania donovani; assay: Antimicrobial activity against Leishmania donovani; format: functional, organism-based

SMILES: N=C(N)c1ccc(OCCCOc2ccc(C(=N)N)cc2)cc1 [PROPAMIDINE]
pIC50 [2]: 5.00

SMILES: C(=N\Nc1ccccc1)/c1ccc(N2CCN(c3ccc(/C=N/Nc4ccccc4)cc3)CC2)cc1
pIC50 [3]: 4.47

SMILES: CCCC1(C)CC(C)(C)CC(C)(N)C1 (centres undefined)
pIC50 [4]: 5.70

SMILES: CSc1ccc2c(c1)cc1c3ccccc3nc-1n2C
pIC50 [4]: 6.00

SMILES: C[C@]12CC[C@H](O)C[C@@H]1CC[C@@H]1[C@@H]2CC[C@@]2(C)[C@H]1CC[C@@H]2[C@@](C)(O)c1ccncc1Cl
pIC50 [5]: 6.00 | pIC50 [6]: 6.00 | pIC50 [7]: 5.10

SMILES: N=C(N)c1cccc(C(=N)N)c1-c1cc2ccccc2[nH]1
pIC50 [2]: 5.52

SMILES: CCCC1(CCC)CC(C)(C)CC(C)(N)C1 (centres undefined)
pIC50 [4]: 6.00

SMILES: C[C@]12CC[C@H](O)C[C@@H]1CC[C@@H]1[C@@H]2CC[C@@]2(C)[C@H]1CC[C@@H]2[C@@](C)(O)c1ccncc1
pIC50 [5]: 6.00 | pIC50 [6]: 6.00 | pIC50 [7]: 4.92

SMILES: Cn1c2nc3ccccc3c-2cc2cc([N+](=O)[O-])ccc21
pIC50 [4]: 6.00

SMILES: Cn1c2nc3ccccc3c-2cc2ccc(C(F)(F)F)cc21
pIC50 [6]: 4.49 | pIC50 [8]: 4.80 | pIC50 [4]: 4.77

SMILES: CCCC1CC(C)(C)CC(C)(N)C1 (centres undefined)
pIC50 [4]: 5.52

SMILES: Cc1c(F)c(N2C[C@@H]3[C@@H](N)[C@@H]3C2)nc2c1c(=O)c(C(=O)O)cn2-c1ccc(F)cc1F [TROVAFLOXACIN3]
pIC50 [9]: 6.00

SMILES: O=[N+]([O-])c1cccc(Sc2cc3ccccc3[nH]2)c1
pIC50 [9]: 5.70

SMILES: CNC12CC3CC(C1)CC(C(C)C)(C3)C2
pIC50 [4]: 5.22

SMILES: N=C(N)c1ccc(OCCCCCOc2ccc(C(=N)N)cc2)cc1 [PENTAMIDINE]
pIC50 [2]: 6.00 | pIC50 [10]: 6.00

SMILES: Clc1cc(Cl)c2[nH]c3nc4ccccc4c-3cc2c1
pIC50 [4]: 4.49

SMILES: O=C(O)COCCOCCOc1cc(Cl)c(Cl)cc1Cl
pIC50 [9]: 6.00

SMILES: c1ccc2cc(Sc3cc4ccccc4[nH]3)ccc2c1
pIC50 [9]: 5.40

SMILES: C=CC(C)(C)c1cc(/C=C/C(=O)c2ccc(O)cc2)c(OC)cc1O [LICOAGROCHACONE A]
pIC50 [7]: 4.85

SMILES: CCCCC12CC3CC(C1)CC(NC)(C3)C2
pIC50 [4]: 5.70

SMILES: Cn1c2nc3ccc(C#N)cc3c-2cc2ccccc21
pIC50 [8]: 4.49 | pIC50 [4]: 4.49

SMILES: C[C@]12CC[C@H](O)C[C@@H]1CC[C@@H]1[C@@H]2CC[C@@]2(C)[C@H]1CC[C@@H]2[C@@](C)(O)c1cccnc1
pIC50 [6]: 4.30 | pIC50 [7]: 4.00

SMILES: Fc1ccc2[nH]c3nc4ccccc4c-3cc2c1
pIC50 [6]: 4.49 | pIC50 [8]: 4.49 | pIC50 [4]: 4.49

SMILES: COc1ccc(Sc2cc3ccccc3[nH]2)cc1
pIC50 [9]: 4.77

SMILES: NC[C@@H]1[C@H]2CN(c3nc4c(cc3F)c(=O)c(C(=O)O)cn4-c3ccc(F)cc3F)C[C@@H]12 [TROVAFLOXACIN11]
pIC50 [9]: 5.05

SMILES: CCCC1(N)CC(C)(C)CC(C)(C)C1
pIC50 [4]: 5.22

SMILES: C[C@]12CC[C@H](O)C[C@@H]1CC[C@@H]1[C@@H]2CC[C@@]2(C)[C@H]1CC[C@@H]2[C@@](C)(O)C1CCCNC1 (some centres undefined)
pIC50 [6]: 4.64 | pIC50 [7]: 4.89

SMILES: c1ccc2[nH]c(Sc3cccc4ccccc34)cc2c1
pIC50 [9]: 5.52

SMILES: CN[C@H]1[C@@H]2CN(c3nc4c(cc3F)c(=O)c(C(=O)O)cn4-c3ccc(F)cc3F)C[C@@H]21 [TROVAFLOXACIN2]
pIC50 [9]: 6.00

SMILES: CN1CCN(C)C1c1ccc(N2CCN(c3ccc(C4N(C)CCN4C)cc3)CC2)cc1
pIC50 [8]: 6.00 | pIC50 [3]: 4.00

SMILES: C[C@@H]1[C@@H]2[C@@H](CN)[C@@H]2CN1c1nc2c(cc1F)c(=O)c(C(=O)O)cn2-c1ccc(F)cc1F [TROVAFLOXACIN7]
pIC50 [9]: 5.52

SMILES: CCC(=O)N1CCCCC1[C@](C)(O)[C@H]1CC[C@H]2[C@@H]3CC[C@H]4C[C@@H](O)CC[C@]4(C)[C@H]3CC[C@@]21C (some centres undefined)
pIC50 [6]: 4.19 | pIC50 [7]: 4.27

SMILES: Clc1ccc2[nH]c3nc4ccccc4c-3cc2c1
pIC50 [6]: 4.49 | pIC50 [8]: 4.49 | pIC50 [4]: 4.49

SMILES: CCNC1(C)CC(C)(C)CC(C)(C)C1
pIC50 [4]: 5.22

SMILES: CSc1c(Sc2ccc([N+](=O)[O-])cc2)[nH]c2ccccc12
pIC50 [9]: 4.55

SMILES: NC[C@@H]1[C@H]2CN(c3nc4c(cc3F)c(=O)c(C(=O)O)cn4C3CC3)C[C@@H]12 [TROVAFLOXACIN9]
pIC50 [9]: 4.92

SMILES: Cn1c2nc3ccc(C#N)cc3c-2cc2cc(C(F)(F)F)ccc21
pIC50 [6]: 4.49 | pIC50 [4]: 4.49

SMILES: C[C@]12CC[C@H](O)C[C@@H]1CC[C@@H]1[C@@H]2CC[C@@]2(C)[C@H]1CC[C@@H]2[C@@](C)(O)c1ccccn1
pIC50 [5]: 5.52 | pIC50 [6]: 6.00 | pIC50 [7]: 4.00

SMILES: NCCCC12CC3CC(CC(C3)C1)C2
pIC50 [4]: 6.00

SMILES: O=[N+]([O-])c1ccc(Sc2cc3ccccc3[nH]2)cc1
pIC50 [9]: 4.85

SMILES: C[C@@H]1[C@@H]2[C@@H](N)[C@@H]2CN1c1nc2c(cc1F)c(=O)c(C(=O)O)cn2-c1ccc(F)cc1F [TROVAFLOXACIN1]
pIC50 [9]: 6.00

SMILES: NCC12CC1CN(c1nc3c(cc1F)c(=O)c(C(=O)O)cn3C1CC1)C2 (centres undefined) [TROVAFLOXACIN10]
pIC50 [9]: 4.92

SMILES: N=C(N)c1ccc(/C=C/c2ccc(C(=N)N)cc2)cc1 [STILBAMIDINE]
pIC50 [2]: 5.05

The next lines start with the values.

pIC50 [1]: 5.70
SMILES: COc1cc(Cc2sc3nc(N)nc(N)c3c2C)cc(OC)c1OC

pIC50 [1]: 4.52
SMILES: Nc1nc(N)c2c(n1)-c1ccsc1CC2

pIC50 [1]: 6.00
SMILES: Nc1nc(N)c2nc(CN3c4ccccc4SC4C=CC=CC43)cnc2n1 (centres undefined)

pIC50 [1]: 6.00
SMILES: Nc1nc(N)c2cc(/C=C/c3ccccc3)ccc2n1

pIC50 [1]: 5.70
SMILES: Nc1nc(N)c2c(n1)CCC(c1ccccc1)C2 (centres undefined)

pIC50 [1]: 5.40
SMILES: Nc1nc(N)c2nc(Cc3ccc(Cl)c(Cl)c3)c(Cc3ccc(Cl)c(Cl)c3)nc2n1

pIC50 [1]: 6.00
SMILES: Nc1nc(N)c2c(n1)CCC(Cc1ccsc1)C2 (centres undefined)

pIC50 [8]: 4.49 | pIC50 [4]: 4.49
SMILES: COc1ccc2[nH]c3nc4ccccc4c-3cc2c1

pIC50 [1]: 5.40
SMILES: COc1cc(Cc2cnc(N)nc2N)cc(OC)c1OC [TRIMETHOPRIM]

pIC50 [1]: 5.70
SMILES: COc1cc(Cc2sc3nc(N)nc(N)c3c2C)c(Br)c(OC)c1OC

pIC50 [4]: 6.00
SMILES: Cn1c2nc3ccccc3c-2cc2cc(Cl)ccc21

pIC50 [1]: 6.00
SMILES: COc1ccc(OC)c(Cc2sc3nc(N)nc(N)c3c2C)c1

pIC50 [1]: 6.00
SMILES: COc1ccc(OC)c(NCc2ccc3nc(N)nc(N)c3n2)c1

pIC50 [1]: 5.52
SMILES: COc1cccc2nc(N)nc(N)c12

pIC50 [6]: 4.77 | pIC50 [8]: 5.30 | pIC50 [4]: 5.05
SMILES: Cn1c2nc3ccccc3c-2cc2ccc(Cl)cc21

pIC50 [1]: 5.52
SMILES: COc1cc(CN2CCc3nc(N)nc(N)c3C2)c(Br)c(OC)c1OC

pIC50 [1]: 6.00
SMILES: Nc1nc(N)c2cc(CN3c4ccccc4C=CC4C=CC=CC43)cnc2n1 (centres undefined)

pIC50 [1]: 5.30
SMILES: COc1cc(CCc2cc3c(N)nc(N)nc3s2)c(Br)c(OC)c1OC

pIC50 [1]: 5.05
SMILES: CCC1CCc2nc(N)nc(N)c2C1 (centres undefined)

pIC50 [6]: 4.49 | pIC50 [8]: 4.52 | pIC50 [4]: 4.57
SMILES: Cn1c2nc3ccccc3c-2cc2ccc(Br)cc21

pIC50 [1]: 5.70
SMILES: CN(Cc1cnc2nc(N)nc(N)c2n1)c1ccc(C(=O)NC(CO)CCO)cc1 (centres undefined)

pIC50 [1]: 5.52
SMILES: COc1cc(Cc2csc3nc(N)nc(N)c23)c(Br)c(OC)c1OC

pIC50 [1]: 6.00
SMILES: COc1ccc(OC)c(-c2sc3nc(N)nc(N)c3c2C)c1

pIC50 [4]: 6.00
SMILES: COc1cccc2c1cc1c3ccccc3nc-1n2C

pIC50 [1]: 6.00
SMILES: Nc1nc(N)c2nc(CN3c4ccccc4CC4C=CC=CC43)cnc2n1 (centres undefined)

pIC50 [1]: 6.00
SMILES: Nc1nc(N)c2nc(Cc3ccc(Cl)cc3)c(Cc3ccc(Cl)cc3)nc2n1

pIC50 [1]: 6.00
SMILES: CCCC(C)NC(=O)c1ccc(N(C)Cc2cnc3nc(N)nc(N)c3n2)cc1 (centres undefined)
